Assay results: patent publication US20230110491A1, “LUCIFERASE-BASED METHODS FOR DETECTING BACTERIAL AND FUNGAL CELLS AND ASSESSING SUSCEPTIBILITY OF BACTERIAL CELLS TO ANTIBIOTICS” (Biosynth AG, priority 2020, published 2023)
≈ marks a conversion by molar mass, not a printed value.

Columns and labels:
[1] = tested on: Salmonella enteritidis RKI 05/07992; assay: Coupled enzyme assay using pro-luciferins on solid nutrient agar with luciferase and ATP; assay type: cell-based; conditions: solid nutrient agar with luciferase, pro-luciferin and 1 mM ATP; approx. 10 CFU/well; 37° C.
Procedure: (§1) Nutrient agar pH 7.4 (5 g/I peptone, 5 g/I NaCl, 2 g/I yeast extract, 1 g/I meat extract, 15 g/I agar) was autoclaved and cooled to 50° C. […] Next, 40 μM D-luciferin (Biosynth AG) was added from a concentrated stock solution.
(§2) Actively growing cultures (Nutrient Broth, 37° C., OD600 0.08 to 0.33) of Staphylococcus aureus ATCC 29213 and Salmonella enteritidis RKI 05/07992 were then diluted to […] in sterile PBS and inoculated to microplate wells with agar (1 μl per well=approx. 10 CFU/well). 1 μl sterile phosphate buffered saline (PBS) was added to sterile control wells. The surrounding wells were filled with sterile water and the plate was incubated at 37° C. in a luminescence microplate reader. The luminescence was measured every 10 min (kinetic mode).
(§3) (Biosynth AG) and 1 mM ATP.

[2] = tested on: Staphylococcus aureus ATCC 29213; assay: as above; assay type: cell-based; conditions: solid nutrient agar with luciferase, pro-luciferin and 1 mM ATP; approx. 10 CFU/well; 37° C.
Procedure: as §1, §2, §3

[3] = tested on: Ampicillin resistant (AMP^R) E. coli RKI 66/09 (AmpC); assay: ATP assay for antibiotic susceptibility testing (luminescence, ATP release); assay type: cell-based, Escherichia coli
Procedure: (§4) Nutrient broth pH 7.4 (5 g/I peptone, 5 g/I NaCl, 2 g/I yeast extract, 1 g/I meat extract) was autoclaved and cooled to room temperature. […] Next, 0.4 mM D-luciferin (Biosynth AG) and 1 mM MgCl2 was added from concentrated stock solutions. The prepared broth was sterilized by filtration (0.2 μm), incubated for 2.5 h at 30° C. in order to burn-off background and then added to a white microplate (0.198 ml per well).
(§5) Ampicillin was added from a dilution series of a filter-sterilized, concentrated stock solution prepared in sterile ultrapure water (5 μl per well). Sterile water was added to control wells without antibiotic. Wells were inoculated with 5 μl of cell suspensions (OD 0.1, prepared in sterile PBS from agar plate pre-cultures) of either Ampicillin resistant (AMP^R) E. coli RKI 66/09 (AmpC) or Ampicillin sensitive (AMP^S) E. coli ATCC 25922. Initial cell concentration in wells was approximately 2.5×10^6 CFU/ml. The microplate was incubated at 37° C. in a luminescence microplate reader and relative luminescence units (RLU) were measured every 2 min for 8 h. For comparison, optical density (600 nm) was measured for all wells after 15 h incubation at 37° C.

[4] = tested on: Ampicillin sensitive (AMP^S) E. coli ATCC 25922; assay: as above; assay type: cell-based, Escherichia coli
Procedure: as §4, §5

[5] = tested on: Ampicillin resistant (AMP^R) E. coli RKI 66/09 (AmpC); assay: Optical density (600 nm) after 15 h incubation with ampicillin; assay type: cell-based, Escherichia coli; conditions: all tested ampicillin concentrations
Procedure: as §5

[6] = tested on: Ampicillin sensitive (AMP^S) E. coli ATCC 25922; assay: as above; assay type: cell-based, Escherichia coli
Procedure: as §5

MIC ([6]; Escherichia coli, ATCC25922, OD 600 nm, 15 h, 37° C., read-out: MIC from optical density after 15 h) [µg/mL]	SMILES	incubation time after which luminescence begins to strongly increase [1]	incubation time after which luminescence increases [2]	time course of ATP release ([3]; 1.56-100 μg/ml ampicillin)	dependency of onset time on ampicillin concentration ([3]; onset time = first time point with RLU above 1200, all tested concentrations)	ATP release at non-inhibitory concentration ([4]; 1.56 μg/ml ampicillin)	time after which ATP increase can be detected ([4]; at inhibitory antibiotic concentrations, cell concentrations as low as 2×10^6 CFU/ml) [min]	ATP release compared to the control without antibiotic ([4]; at the MIC or above (6.25, 25, 100 μg/ml))	dependency of onset time on ampicillin concentration ([4]; onset time = first time point with RLU above 1200)	growth inhibition (optical density after 15 h) [5]	cell growth (optical density after 15 h) ([6]; 10-100 μg/ml ampicillin)
–	CCCCCCCC(=O)Oc1ccc(COc2ccc3nc(C4=N[C@@H](C(=O)O)CS4)sc3c2)cc1 [D-luciferin-spacer-caprylate]	about 10 hours	about 17 hours	–	–	–	–	–	–	–	–
~6 (≈ 17.2 µM)	CC1(C)S[C@@H]2[C@H](NC(=O)[C@H](N)c3ccccc3)C(=O)N2[C@H]1C(=O)O [ampicillin]	–	–	independent of ampicillin concentration	essentially the same onset time	very high amounts of ATP are released	30	occurs earlier and is increased	inversely correlates with ampicillin concentration	no growth inhibition	lack of cell growth
